ChEMBL document CHEMBL4507296 (2021)

What was measured:
[1] = target: Tyrosine-protein kinase Fes/Fps (Homo sapiens) (UniProt P07332); conditions: Compound concentration 1000.0 nM
[2] = target: Ephrin type-A receptor 2 (Homo sapiens) (UniProt P29317); conditions: Compound concentration 1000.0 nM
[3] = target: Serine/threonine-protein kinase PRP4 homolog (Homo sapiens) (UniProt Q13523); conditions: Compound concentration 1000.0 nM
[4] = system: Epidermal growth factor receptor (Homo sapiens), P00533 [L858R,T790M]; conditions: Compound concentration 1000.0 nM
[5] = system: Receptor-type tyrosine-protein kinase FLT3 (Homo sapiens), P36888 [UNDEFINED MUTATION]; conditions: Compound concentration 1000.0 nM
Chain of Receptor-type tyrosine-protein kinase FLT3 (Homo sapiens), P36888 [UNDEFINED MUTATION] (P36888 whole entry, looked up, change not shown): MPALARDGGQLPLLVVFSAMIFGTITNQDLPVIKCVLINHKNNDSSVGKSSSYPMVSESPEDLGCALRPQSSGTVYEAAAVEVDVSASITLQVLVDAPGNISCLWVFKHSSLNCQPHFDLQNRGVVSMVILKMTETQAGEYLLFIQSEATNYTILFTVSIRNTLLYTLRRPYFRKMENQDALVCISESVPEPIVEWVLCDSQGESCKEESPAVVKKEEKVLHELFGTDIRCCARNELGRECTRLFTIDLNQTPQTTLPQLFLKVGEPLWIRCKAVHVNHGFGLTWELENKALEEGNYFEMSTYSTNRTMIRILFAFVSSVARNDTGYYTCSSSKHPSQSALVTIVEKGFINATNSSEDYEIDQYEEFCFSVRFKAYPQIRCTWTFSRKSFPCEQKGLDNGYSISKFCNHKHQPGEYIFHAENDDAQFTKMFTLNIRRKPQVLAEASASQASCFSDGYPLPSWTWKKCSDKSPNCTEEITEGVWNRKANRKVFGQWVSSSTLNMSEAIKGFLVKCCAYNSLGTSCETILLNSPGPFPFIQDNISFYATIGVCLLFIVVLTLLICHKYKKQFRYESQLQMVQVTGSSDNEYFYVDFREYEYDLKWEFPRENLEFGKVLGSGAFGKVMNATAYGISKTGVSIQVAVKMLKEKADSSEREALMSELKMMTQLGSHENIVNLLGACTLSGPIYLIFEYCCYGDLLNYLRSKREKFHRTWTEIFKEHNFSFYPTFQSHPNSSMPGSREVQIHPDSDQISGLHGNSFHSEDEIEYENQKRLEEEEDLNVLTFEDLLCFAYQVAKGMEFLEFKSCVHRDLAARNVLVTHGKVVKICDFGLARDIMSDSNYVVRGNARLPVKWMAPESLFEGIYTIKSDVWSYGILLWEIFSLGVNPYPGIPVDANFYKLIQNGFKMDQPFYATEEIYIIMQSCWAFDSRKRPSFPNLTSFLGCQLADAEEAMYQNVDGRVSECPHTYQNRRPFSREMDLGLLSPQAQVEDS

[6] = target: Serine/threonine-protein kinase ICK (Homo sapiens) (UniProt Q9UPZ9); conditions: Compound concentration 1000.0 nM
[7] = system: Phosphatidylinositol 4,5-bisphosphate 3-kinase catalytic subunit alpha isoform (Homo sapiens), P42336 [H1047L]; conditions: Compound concentration 1000.0 nM
[8] = target: Serine/threonine-protein kinase PLK2 (Homo sapiens) (UniProt Q9NYY3); conditions: Compound concentration 1000.0 nM
[9] = target: MAP kinase-activated protein kinase 5 (Homo sapiens) (UniProt Q8IW41); conditions: Compound concentration 1000.0 nM
[10] = target: Tyrosine-protein kinase Yes (Homo sapiens) (UniProt P07947); conditions: Compound concentration 1000.0 nM
[11] = target: Serine/threonine-protein kinase 17A (Homo sapiens) (UniProt Q9UEE5); conditions: Compound concentration 1000.0 nM
[12] = target: Serine/threonine-protein kinase Sgk1 (Homo sapiens) (UniProt O00141); conditions: Compound concentration 1000.0 nM
[13] = target: Myotonin-protein kinase (Homo sapiens) (UniProt Q09013); conditions: Compound concentration 1000.0 nM
[14] = target: Serine/threonine-protein kinase N1 (Homo sapiens) (UniProt Q16512); conditions: Compound concentration 1000.0 nM
[15] = target: Atypical kinase COQ8B, mitochondrial (Homo sapiens) (UniProt Q96D53); conditions: Compound concentration 1000.0 nM
[16] = target: Dual specificity protein kinase CLK4 (Homo sapiens) (UniProt Q9HAZ1); conditions: Compound concentration 1000.0 nM
[17] = target: Rhodopsin kinase GRK1 (Homo sapiens) (UniProt Q15835); conditions: Compound concentration 1000.0 nM
[18] = target: Ribosomal protein S6 kinase alpha-1 (Homo sapiens) (UniProt Q15418); conditions: Compound concentration 1000.0 nM
Chain of Ribosomal protein S6 kinase alpha-1 (Homo sapiens) (Q15418 whole entry): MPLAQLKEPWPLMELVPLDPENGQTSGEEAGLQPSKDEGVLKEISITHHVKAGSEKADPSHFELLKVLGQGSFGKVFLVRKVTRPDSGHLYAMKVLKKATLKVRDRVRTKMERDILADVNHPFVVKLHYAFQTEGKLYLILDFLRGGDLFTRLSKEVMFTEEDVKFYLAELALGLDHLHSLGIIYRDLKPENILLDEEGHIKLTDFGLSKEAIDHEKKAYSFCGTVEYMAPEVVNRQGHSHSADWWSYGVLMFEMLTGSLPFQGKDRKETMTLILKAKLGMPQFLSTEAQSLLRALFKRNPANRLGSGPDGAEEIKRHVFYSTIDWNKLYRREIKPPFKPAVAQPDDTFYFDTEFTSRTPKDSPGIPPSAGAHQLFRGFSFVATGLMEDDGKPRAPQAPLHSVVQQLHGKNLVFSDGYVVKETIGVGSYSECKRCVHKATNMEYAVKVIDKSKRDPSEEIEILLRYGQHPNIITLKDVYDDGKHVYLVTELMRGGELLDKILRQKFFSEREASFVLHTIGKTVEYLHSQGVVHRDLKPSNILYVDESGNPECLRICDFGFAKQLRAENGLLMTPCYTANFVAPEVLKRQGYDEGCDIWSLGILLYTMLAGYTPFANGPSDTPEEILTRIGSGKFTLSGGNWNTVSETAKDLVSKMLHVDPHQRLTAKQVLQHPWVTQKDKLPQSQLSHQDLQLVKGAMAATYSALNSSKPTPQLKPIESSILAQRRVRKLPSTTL

[19] = target: Glycogen synthase kinase-3 alpha (Homo sapiens) (UniProt P49840); conditions: Compound concentration 1000.0 nM
[20] = target: Serine/threonine-protein kinase MRCK beta (Homo sapiens) (UniProt Q9Y5S2); conditions: Compound concentration 1000.0 nM
[21] = target: Megakaryocyte-associated tyrosine-protein kinase (Homo sapiens) (UniProt P42679); conditions: Compound concentration 1000.0 nM
[22] = target: Mitogen-activated protein kinase kinase kinase 19 (Homo sapiens) (UniProt Q56UN5); conditions: Compound concentration 1000.0 nM
Chain of Mitogen-activated protein kinase kinase kinase 19 (Homo sapiens) (Q56UN5 whole entry, canonical isoform): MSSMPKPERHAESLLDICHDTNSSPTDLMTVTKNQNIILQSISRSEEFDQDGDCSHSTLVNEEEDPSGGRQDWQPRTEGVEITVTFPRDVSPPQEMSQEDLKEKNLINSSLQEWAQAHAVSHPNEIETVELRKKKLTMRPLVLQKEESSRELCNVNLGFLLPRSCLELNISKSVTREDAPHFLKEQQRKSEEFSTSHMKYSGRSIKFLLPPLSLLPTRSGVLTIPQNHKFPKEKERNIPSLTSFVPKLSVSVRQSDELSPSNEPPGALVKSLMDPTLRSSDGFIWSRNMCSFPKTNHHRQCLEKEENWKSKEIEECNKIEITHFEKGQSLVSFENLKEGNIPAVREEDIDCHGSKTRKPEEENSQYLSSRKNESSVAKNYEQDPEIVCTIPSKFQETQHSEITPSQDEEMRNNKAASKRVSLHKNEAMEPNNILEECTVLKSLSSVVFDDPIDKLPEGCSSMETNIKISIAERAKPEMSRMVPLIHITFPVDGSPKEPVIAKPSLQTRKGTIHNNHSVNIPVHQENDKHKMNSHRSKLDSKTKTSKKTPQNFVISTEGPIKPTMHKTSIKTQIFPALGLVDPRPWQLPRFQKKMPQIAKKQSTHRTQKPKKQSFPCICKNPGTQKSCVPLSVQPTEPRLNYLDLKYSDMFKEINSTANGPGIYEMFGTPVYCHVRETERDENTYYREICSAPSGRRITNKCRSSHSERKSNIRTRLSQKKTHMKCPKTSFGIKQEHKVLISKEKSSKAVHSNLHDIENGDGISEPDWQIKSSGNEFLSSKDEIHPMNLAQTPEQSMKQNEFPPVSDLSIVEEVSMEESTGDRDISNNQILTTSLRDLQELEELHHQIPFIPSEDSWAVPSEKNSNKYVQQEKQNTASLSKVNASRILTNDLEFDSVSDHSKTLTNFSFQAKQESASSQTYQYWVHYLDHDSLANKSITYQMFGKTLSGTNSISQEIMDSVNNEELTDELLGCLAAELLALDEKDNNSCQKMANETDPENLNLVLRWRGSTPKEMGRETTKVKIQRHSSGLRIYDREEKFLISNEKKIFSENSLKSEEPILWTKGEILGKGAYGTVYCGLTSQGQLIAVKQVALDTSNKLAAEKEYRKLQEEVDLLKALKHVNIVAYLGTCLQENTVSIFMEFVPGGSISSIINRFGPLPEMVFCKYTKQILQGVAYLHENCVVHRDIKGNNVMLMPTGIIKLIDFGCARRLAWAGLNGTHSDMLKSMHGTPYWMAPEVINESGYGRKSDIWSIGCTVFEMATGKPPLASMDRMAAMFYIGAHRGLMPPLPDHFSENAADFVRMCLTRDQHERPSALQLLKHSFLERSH

[23] = target: Phosphatidylinositol 4,5-bisphosphate 3-kinase catalytic subunit alpha isoform (Homo sapiens) (UniProt P42336); conditions: Compound concentration 1000.0 nM
[24] = target: Casein kinase I isoform alpha (Homo sapiens) (UniProt P48729); conditions: Compound concentration 1000.0 nM
Chain of Casein kinase I isoform alpha (Homo sapiens) (P48729 2-337 limits assumed): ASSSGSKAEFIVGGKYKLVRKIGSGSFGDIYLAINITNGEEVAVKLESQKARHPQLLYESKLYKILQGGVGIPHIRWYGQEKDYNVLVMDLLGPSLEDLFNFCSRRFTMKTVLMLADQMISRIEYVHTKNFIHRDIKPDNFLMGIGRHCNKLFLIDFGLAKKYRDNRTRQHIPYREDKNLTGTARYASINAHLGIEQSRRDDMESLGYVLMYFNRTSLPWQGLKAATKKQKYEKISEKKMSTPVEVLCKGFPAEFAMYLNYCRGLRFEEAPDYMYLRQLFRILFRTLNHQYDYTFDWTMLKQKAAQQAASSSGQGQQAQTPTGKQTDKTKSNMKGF

[25] = target: Inhibitor of nuclear factor kappa-B kinase subunit alpha (Homo sapiens) (UniProt O15111); conditions: Compound concentration 1000.0 nM
[26] = target: Ephrin type-A receptor 1 (Homo sapiens) (UniProt P21709); conditions: Compound concentration 1000.0 nM
[27] = system: Mast/stem cell growth factor receptor Kit (Homo sapiens), P10721 [V559D,T670I]; conditions: Compound concentration 1000.0 nM
[28] = target: Serine/threonine-protein kinase 35 (Homo sapiens) (UniProt Q8TDR2); conditions: Compound concentration 1000.0 nM
Chain of Serine/threonine-protein kinase 35 (Homo sapiens) (Q8TDR2 whole entry): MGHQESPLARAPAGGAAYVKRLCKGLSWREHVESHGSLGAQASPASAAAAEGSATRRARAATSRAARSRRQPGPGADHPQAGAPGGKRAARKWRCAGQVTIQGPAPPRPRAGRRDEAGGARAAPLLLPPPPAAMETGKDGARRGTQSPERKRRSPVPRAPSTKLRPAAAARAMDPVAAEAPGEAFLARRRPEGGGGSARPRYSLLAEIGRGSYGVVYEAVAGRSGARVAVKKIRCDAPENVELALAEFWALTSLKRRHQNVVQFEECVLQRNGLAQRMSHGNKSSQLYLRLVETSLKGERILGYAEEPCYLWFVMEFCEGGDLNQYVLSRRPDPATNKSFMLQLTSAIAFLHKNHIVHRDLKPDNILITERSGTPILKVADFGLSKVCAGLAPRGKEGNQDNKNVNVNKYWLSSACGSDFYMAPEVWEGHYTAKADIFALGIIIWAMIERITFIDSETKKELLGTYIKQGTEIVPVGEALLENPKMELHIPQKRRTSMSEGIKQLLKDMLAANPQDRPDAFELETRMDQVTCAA

[29] = target: D(3) dopamine receptor (Homo sapiens) (UniProt P35462); conditions: Compound concentration 10.0 uM
[30] = target: Tyrosine-protein kinase BTK (Homo sapiens) (UniProt Q06187); conditions: Compound concentration 1000.0 nM
[31] = target: Serine/threonine-protein kinase 26 (Homo sapiens) (UniProt Q9P289); conditions: Compound concentration 1000.0 nM
[32] = system: Mast/stem cell growth factor receptor Kit (Homo sapiens), P10721 [D816H]; conditions: Compound concentration 1000.0 nM
[33] = target: Mitogen-activated protein kinase 4 (Homo sapiens) (UniProt P31152); conditions: Compound concentration 1000.0 nM
[34] = target: Wee1-like protein kinase 2 (Homo sapiens) (UniProt P0C1S8); conditions: Compound concentration 1000.0 nM
Chain of Wee1-like protein kinase 2 (Homo sapiens) (P0C1S8 whole entry, looked up): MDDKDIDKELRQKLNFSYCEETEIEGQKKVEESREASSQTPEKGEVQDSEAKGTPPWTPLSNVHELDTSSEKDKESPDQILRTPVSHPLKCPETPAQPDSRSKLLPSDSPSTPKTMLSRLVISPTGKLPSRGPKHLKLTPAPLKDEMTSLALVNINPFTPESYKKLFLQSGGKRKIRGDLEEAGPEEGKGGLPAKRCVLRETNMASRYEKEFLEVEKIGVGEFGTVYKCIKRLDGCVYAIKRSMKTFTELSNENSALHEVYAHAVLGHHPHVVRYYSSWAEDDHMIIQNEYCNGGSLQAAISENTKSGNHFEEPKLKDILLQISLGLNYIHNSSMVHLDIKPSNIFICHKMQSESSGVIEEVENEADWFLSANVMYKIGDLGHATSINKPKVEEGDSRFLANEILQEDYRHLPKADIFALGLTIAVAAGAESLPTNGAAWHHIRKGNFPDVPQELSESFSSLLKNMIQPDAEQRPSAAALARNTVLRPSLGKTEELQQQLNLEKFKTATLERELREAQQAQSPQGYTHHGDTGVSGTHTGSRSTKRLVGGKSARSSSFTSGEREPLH

[35] = target: Proto-oncogene tyrosine-protein kinase ROS (Homo sapiens) (UniProt P08922); conditions: Compound concentration 1000.0 nM
[36] = target: Serine/threonine-protein kinase DCLK3 (Homo sapiens) (UniProt Q9C098); conditions: Compound concentration 1000.0 nM
[37] = system: Phosphatidylinositol 4,5-bisphosphate 3-kinase catalytic subunit alpha isoform (Homo sapiens), P42336 [E545A]; conditions: Compound concentration 1000.0 nM
[38] = target: Tyrosine-protein kinase receptor Tie-1 (Homo sapiens) (UniProt P35590); conditions: Compound concentration 1000.0 nM
[39] = target: Mitogen-activated protein kinase 10 (Homo sapiens) (UniProt P53779); conditions: Compound concentration 1000.0 nM
[40] = target: Myosin-IIIa (Homo sapiens) (UniProt Q8NEV4); conditions: Compound concentration 1000.0 nM
[41] = target: Mitogen-activated protein kinase kinase kinase 2 (Homo sapiens) (UniProt Q9Y2U5); conditions: Compound concentration 1000.0 nM
[42] = target: Mitogen-activated protein kinase 8 (Homo sapiens) (UniProt P45983); conditions: Compound concentration 1000.0 nM
[43] = target: D(4) dopamine receptor (Homo sapiens) (UniProt P21917); conditions: Compound concentration 10.0 uM
[44] = target: G protein-coupled receptor kinase 4 (Homo sapiens) (UniProt P32298); conditions: Compound concentration 1000.0 nM
Chain of G protein-coupled receptor kinase 4 (Homo sapiens) (P32298 whole entry, looked up): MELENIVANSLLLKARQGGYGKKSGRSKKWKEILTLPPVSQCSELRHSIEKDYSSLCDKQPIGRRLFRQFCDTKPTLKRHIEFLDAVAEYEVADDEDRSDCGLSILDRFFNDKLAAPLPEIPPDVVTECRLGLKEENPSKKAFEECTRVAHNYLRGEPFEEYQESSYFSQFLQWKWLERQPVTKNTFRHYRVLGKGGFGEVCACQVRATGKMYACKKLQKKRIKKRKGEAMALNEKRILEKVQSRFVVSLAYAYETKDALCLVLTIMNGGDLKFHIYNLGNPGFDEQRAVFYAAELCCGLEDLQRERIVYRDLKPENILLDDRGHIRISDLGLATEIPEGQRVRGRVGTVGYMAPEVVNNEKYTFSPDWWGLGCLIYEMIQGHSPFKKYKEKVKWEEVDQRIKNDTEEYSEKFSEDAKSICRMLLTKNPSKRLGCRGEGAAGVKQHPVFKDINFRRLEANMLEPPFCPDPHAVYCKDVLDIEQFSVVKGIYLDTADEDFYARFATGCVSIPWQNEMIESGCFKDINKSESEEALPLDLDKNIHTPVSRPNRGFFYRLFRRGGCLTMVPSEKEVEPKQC

[45] = target: Ribosomal protein S6 kinase alpha-2 (Homo sapiens) (UniProt Q15349); conditions: Compound concentration 1000.0 nM

C[C@H](c1ccc(F)cc1)N(Cc1cccc(C(=O)O)c1)C(=O)c1cnc2ccccc2c1 [PF-05105679]
inactive: residual activity [1] 100% | residual activity [2] 100% | residual activity [3] 100% | residual activity [4] 96% | residual activity [5] 100% | residual activity [6] 100% | residual activity [7] 100% | residual activity [8] 100% | residual activity [9] 96% | residual activity [10] 100% | residual activity [11] 86% | residual activity [12] 81% | residual activity [13] 88% | residual activity [14] 100% | residual activity [15] 86% | residual activity [16] 66% | residual activity [17] 100% | residual activity [18] 100% | residual activity [19] 100% | residual activity [20] 94% | residual activity [21] 79% | residual activity [22] 72% | residual activity [23] 100% | residual activity [24] 100% | residual activity [25] 93% | residual activity [26] 100% | residual activity [27] 98% | residual activity [28] 93% | inhibition [29] -8.16% | residual activity [30] 95% | residual activity [31] 79% | residual activity [32] 100% | residual activity [33] 93% | residual activity [34] 100% | residual activity [35] 100% | residual activity [36] 100% | residual activity [37] 100% | residual activity [38] 93% | residual activity [39] 82% | residual activity [40] 100% | residual activity [41] 100% | residual activity [42] 100% | inhibition [43] 10.1% | residual activity [44] 100% | residual activity [45] 100%
